Measured values published in patent publication US20110046104A1, “AMINOPYRIMIDINES USEFUL AS KINASE INHIBITORS” (VERTEX PHARMACEUTICALS INCORPORATED, priority 2007, published 2011).

Target: T1, Aurora-2 (Aurora A) (Homo sapiens, UniProt O14965)
T1 sequence (O14965 1-403): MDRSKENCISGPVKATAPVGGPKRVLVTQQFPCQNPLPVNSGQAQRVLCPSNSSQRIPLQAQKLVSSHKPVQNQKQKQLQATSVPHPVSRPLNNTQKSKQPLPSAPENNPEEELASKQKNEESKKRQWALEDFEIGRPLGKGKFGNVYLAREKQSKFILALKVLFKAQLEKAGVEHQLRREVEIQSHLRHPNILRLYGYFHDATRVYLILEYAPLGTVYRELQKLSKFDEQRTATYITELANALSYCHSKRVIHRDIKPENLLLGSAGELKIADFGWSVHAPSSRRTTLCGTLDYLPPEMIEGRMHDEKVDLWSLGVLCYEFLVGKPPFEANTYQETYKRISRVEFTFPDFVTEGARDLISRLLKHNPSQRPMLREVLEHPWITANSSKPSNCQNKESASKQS
Assay: Aurora-2 (Aurora A) inhibition assay, coupled enzyme assay
Assay type: biochemical
Conditions: 400 μM ATP, 570 μM Kemptide, 40 nM Aurora-2, 30° C.
Description: Compounds were screened for their ability to inhibit Aurora-2 using a standard coupled enzyme assay (Fox et al., Protein Sci., (1998) 7, 2249). Assays were carried out in a mixture of 100 mM Hepes (pH7.5), 10 mM MgCl2, 1 mM DTT, 25 mM NaCl, 2.5 mM phosphoenolpyruvate, 300 μM NADH, 30 μg/ml pyruvate kinase and 10 μg/ml lactate dehydrogenase. Final substrate concentrations in the assay were 400 μM ATP (Sigma Chemicals) and 570 μM peptide (Kemptide, American Peptide, Sunnyvale, Calif.). Assays were carried out at 30° C. and in the presence of 40 nM Aurora-2.
An assay stock buffer solution was prepared containing all of the reagents listed above, with the exception of Aurora-2 and the test compound of interest. 55 μl of the stock solution was placed in a 96 well plate followed by addition of 2 μl of DMSO stock containing serial dilutions of the test compound (typically starting from a final concentration of 7.5 μM). The plate was preincubated for 10 minutes at 30° C. and the reaction initiated by addition of 10 μl of Aurora-2. Initial reaction rates were determined with a Molecular Devices SpectraMax Plus plate reader over a 10 minute time course. IC50 and Ki data were calculated from non-linear regression analysis using the Prism software package (GraphPad Prism version 3.0cx for Macintosh, GraphPad Software, San Diego Calif., USA).

SMILES | Ki
O=C(CC(F)(F)F)Nc1ccc(Sc2nc(Nc3ncns3)cc(N3CC(F)(C4CC4)C3)n2)cc1 [Compound I-1, N-(4-(4-(1,2,4-thiadiazol-5-ylamino)-6-(3-cyclopropyl-3-fluoroazetidin-1-yl)pyrimidin-2-ylthio)phenyl)-3,3,3-trifluoropropanamide] | 33 nM

Target: Aurora-1 (Aurora B) (Homo sapiens, UniProt Q96GD4)
Sequence (Q96GD4 whole entry): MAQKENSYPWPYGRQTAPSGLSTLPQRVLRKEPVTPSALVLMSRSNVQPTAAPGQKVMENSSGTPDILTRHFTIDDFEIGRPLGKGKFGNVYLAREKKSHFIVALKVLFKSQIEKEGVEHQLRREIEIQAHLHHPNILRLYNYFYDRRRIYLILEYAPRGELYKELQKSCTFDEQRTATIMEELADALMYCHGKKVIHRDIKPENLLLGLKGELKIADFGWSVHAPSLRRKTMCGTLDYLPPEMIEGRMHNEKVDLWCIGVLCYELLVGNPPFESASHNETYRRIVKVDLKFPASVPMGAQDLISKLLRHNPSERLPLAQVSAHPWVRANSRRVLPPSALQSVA
Assay: Aurora-1 (Aurora B) inhibition assay (radiometric)
Assay type: biochemical
Conditions: 800 μM [γ-33P]-ATP, Kemptide, 25° C., 3 hours
Description: An assay buffer solution was prepared which consisted of 25 mM HEPES (pH 7.5), 10 mM MgCl2, 0.1% BSA and 10% glycerol. A 22 nM Aurora-B solution, also containing 1.7 mM DTT and 1.5 mM Kemptide (LRRASLG), was prepared in assay buffer. To 22 μL of the Aurora-B solution, in a 96-well plate, was added 2 μl of a compound stock solution in DMSO and the mixture allowed to equilibrate for 10 minutes at 25° C. The enzyme reaction was initiated by the addition of 16 μl stock [γ-^33P]-ATP solution (˜20 nCi/μL) prepared in assay buffer, to a final assay concentration of 800 μM. The reaction was stopped after 3 hours by the addition of 16 μL 500 mM phosphoric acid and the levels of ^33P incorporation into the peptide substrate were determined by the following method.
A phosphocellulose 96-well plate (Millipore, Cat no. MAPHNOB50) was pre-treated with 100 μL of a 100 mM phosphoric acid prior to the addition of the enzyme reaction mixture (40 μL). The solution was left to soak on to the phosphocellulose membrane for 30 minutes and the plate subsequently washed four times with 200 μL of a 100 mM phosphoric acid. To each well of the dry plate was added 30 μL of Optiphase ‘SuperMix’ liquid scintillation cocktail (Perkin Elmer) prior to scintillation counting (1450 Microbeta Liquid Scintillation Counter, Wallac). Levels of non-enzyme catalyzed background radioactivity were determined by adding 16 μL of the 500 mM phosphoric acid to control wells, containing all assay components (which acts to denature the enzyme), prior to the addition of the [γ-^33P]-ATP solution. Levels of enzyme catalyzed ^33P incorporation were calculated by subtracting mean background counts from those measured at each inhibitor concentration. For each Ki determination 8 data points, typically covering the concentration range 0-10 μM compound, were obtained in duplicate (DMSO stocks were prepared from an initial compound stock of 10 mM with subsequent 1:2.5 serial dilutions). Ki values were calculated from initial rate data by non-linear regression using the Prism software package (Prism 3.0, Graphpad Software, San Diego, Calif.).

SMILES | Ki
O=C(CC(F)(F)F)Nc1ccc(Sc2nc(Nc3ncns3)cc(N3CC(F)(C4CC4)C3)n2)cc1 [Compound I-1, N-(4-(4-(1,2,4-thiadiazol-5-ylamino)-6-(3-cyclopropyl-3-fluoroazetidin-1-yl)pyrimidin-2-ylthio)phenyl)-3,3,3-trifluoropropanamide] | > 1500 nM
O=C(CC(F)(F)F)Nc1ccc(Sc2nc(Nc3nnc[nH]3)cc(N3CC(F)(C4CC4)C3)n2)cc1 [Compound I-2, N-(4-(4-(4H-1,2,4-Triazol-3-ylamino)-6-(3-cyclopropyl-3-fluoroazetidin-1-yl)pyrimidin-2-ylthio)phenyl)-3,3,3-trifluoropropanamide] | > 1500 nM
O=C(CC(F)(F)F)Nc1ccc(Sc2nc(Nc3ccccn3)cc(N3CC(F)(C4CC4)C3)n2)cc1 [Compound I-3, N-(4-(4-(3-Cyclopropyl-3-fluoroazetidin-1-yl)-6-(pyridin-2-ylamino)pyrimidin-2-ylthio)phenyl)-3,3,3-trifluoropropanamide] | < 500 nM
O=C(Nc1ccc(Sc2nc(Nc3ncns3)cc(N3CC(F)(C4CC4)C3)n2)cc1)C1CC1 [Compound I-4, N-(4-(4-(1,2,4-Thiadiazol-5-ylamino)-6-(3-cyclopropyl-3-fluoroazetidin-1-yl)pyrimidin-2-ylthio)phenyl)cyclopropanecarboxamide] | > 1500 nM
O=C(Nc1ccc(Sc2nc(Nc3ncns3)cc(N3CCC3)n2)cc1)c1ccccc1Cl [Compound I-7, N-(4-(4-(1,2,4-Thiadiazol-5-ylamino)-6-(azetidin-1-yl)pyrimidin-2-ylthio)phenyl)-2-chlorobenzamide] | < 500 nM
O=C(NCC(F)(F)F)c1ccc(Sc2nc(Nc3ncns3)cc(N3CC(F)(C4CC4)C3)n2)cc1 [Compound I-8, 4-(4-(1,2,4-Thiadiazol-5-ylamino)-6-(3-cyclopropyl-3-fluoroazetidin-1-yl)pyrimidin-2-ylthio)-N-(2,2,2-trifluoroethyl)benzamide] | > 1500 nM
O=C(CC(F)(F)F)Nc1ccc(Sc2nc(Nc3ccccn3)cc(N3CC[C@H](F)C3)n2)cc1 [Compound I-9, (S)-3,3,3-Trifluoro-N-(4-(4-(3-fluoropyrrolidin-1-yl)-6-(pyridin-2-ylamino)pyrimidin-2-ylthio)phenyl)propanamide] | > 1500 nM
O=C(CC(F)(F)F)Nc1ccc(Sc2nc(Nc3nnc[nH]3)cc(N3CC[C@H](F)C3)n2)cc1 [Compound I-10, (S)—N-(4-(4-(4H-1,2,4-Triazol-3-ylamino)-6-(3-fluoropyrrolidin-1-yl)pyrimidin-2-ylthio)phenyl)-3,3,3-trifluoropropanamide] | < 500 nM
O=C(CC(F)(F)F)Nc1ccc(Sc2nc(Nc3ncns3)cc(N3CC[C@H](F)C3)n2)cc1 [Compound I-11, (S)—N-(4-(4-(1,2,4-Thiadiazol-5-ylamino)-6-(3-fluoropyrrolidin-1-yl)pyrimidin-2-ylthio)phenyl)-3,3,3-trifluoropropanamide] | > 1500 nM
